Results published in patent publication US20060223837A1 (priority 2005, published 2006).
Values belong to the compound of their own block, whether it stands above or below them.

Legend:
human VR1 [1] = target: T1, human VR1 (Homo sapiens, UniProt Q8NER1); test: Human VR1 functional assay (FLIPR intracellular Ca2+); assay type: cell-based; details: for inhibition at 1 µM / inhibition at 5 µM / inhibition at 10 µM / h % I (10 μM) / h % I (5 μM): inhibition of capsaicin response; for inhibition at 1 µM: read-out: h % I (1 μM); for inhibition at 5 µM: read-out: h % I (5 μM); for IC50: antagonism of capsaicin-induced Ca2+ increase, read-out: h IC50; for Emax at 12 µM: read-out: % Response Relative to EC80 of Capsaicin (12 μM); for inhibition at 10 µM: read-out: h % I (10 μM); for EC50: agonist-induced Ca2+ increase, read-out: h EC50
T1 construct: expressed in transfected cells; host or cells: HEK293
T1 sequence (Q8NER1 whole entry): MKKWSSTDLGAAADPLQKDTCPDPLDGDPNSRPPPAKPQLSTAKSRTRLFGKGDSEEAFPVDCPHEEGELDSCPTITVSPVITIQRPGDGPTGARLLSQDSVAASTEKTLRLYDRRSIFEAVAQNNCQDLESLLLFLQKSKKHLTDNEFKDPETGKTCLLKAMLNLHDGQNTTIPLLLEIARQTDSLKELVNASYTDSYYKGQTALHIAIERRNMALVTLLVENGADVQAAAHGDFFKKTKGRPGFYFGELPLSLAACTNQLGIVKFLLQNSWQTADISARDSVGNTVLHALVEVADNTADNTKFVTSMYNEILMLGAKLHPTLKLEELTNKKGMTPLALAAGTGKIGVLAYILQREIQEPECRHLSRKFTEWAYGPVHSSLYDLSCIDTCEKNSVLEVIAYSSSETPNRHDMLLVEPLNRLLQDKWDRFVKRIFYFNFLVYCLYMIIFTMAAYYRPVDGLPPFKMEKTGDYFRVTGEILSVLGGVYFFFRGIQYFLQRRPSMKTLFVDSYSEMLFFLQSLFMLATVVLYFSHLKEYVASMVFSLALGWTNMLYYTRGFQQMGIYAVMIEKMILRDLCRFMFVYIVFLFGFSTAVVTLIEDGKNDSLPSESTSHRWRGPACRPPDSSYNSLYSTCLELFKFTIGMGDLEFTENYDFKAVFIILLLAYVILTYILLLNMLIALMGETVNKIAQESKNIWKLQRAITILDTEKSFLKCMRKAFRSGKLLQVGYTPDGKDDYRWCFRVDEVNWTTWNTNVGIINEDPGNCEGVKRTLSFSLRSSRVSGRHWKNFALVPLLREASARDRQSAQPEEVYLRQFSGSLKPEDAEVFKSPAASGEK
Summary of the method: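 HEK293 cells expressing human VR1, loaded with Calcium 3 dye, were exposed to test compounds for 5 min while FLIPR recorded intracellular Ca2+, then challenged with capsaicin at ~80% maximal response ([…]). EC50 or IC50 came from dose-response curves on quadruplicate-well means.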

human VR1 [2] = target: T1, human VR1; test: Human VR1 [3H]RTX binding assay; details: for Ki: [3H]RTX binding, HEK293 membranes; for h Binding % I (1 μM) / inhibition at 1 µM: inhibition of [3H]RTX binding at 1 μM; for inhibition at 1 µM: read-out: h Binding % I (1 μM)
Summary of the method: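 Membranes from human VR1-transfected HEK293 cells (~120 μg protein/ml) incubated with [3H]RTX in HEPES pH 7.4 with 0.25 mg/mL BSA, 37 C, 60 min. Bound counts by scintillation after α-acid glycoprotein and centrifugation; nonspecific defined with 200 nM unlabelled RTX. Ki from duplicate means.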

Structure (SMILES): O=C(CCc1ccc(Cl)cc1)Nc1ccc(-n2ccnc2)c(C(F)(F)F)c1 [Cpd 242]
IC50 (human VR1 [1]): 400 nM
inhibition at 1 µM (human VR1 [1]): 76%
Ki (human VR1 [2]): 2110 nM

Structure (SMILES): O=C(CCc1ccc(C(F)(F)F)cc1)Nc1ccc(-c2cccc(CO)c2)nc1 [Cpd 149]
% Response Relative to EC80 of Capsaicin (12 μM) (human VR1 [1]; agonist response): 101%
h Binding % I (1 μM) (human VR1 [2]): 9%

Structure (SMILES): CC(C)(C)c1ccc(CCC(=O)Nc2cccc(-c3ccccc3O)c2)cc1 [Cpd 9]
h % I (10 μM) (human VR1 [1]): 16%
h Binding % I (1 μM) (human VR1 [2]): 1%

Structure (SMILES): CC(C)(C)c1ccc(CCC(=O)Nc2ccc(-c3ccccc3O)c(CO)c2)cc1 [Cpd 92]
Emax at 6 µM (human VR1 [1]; agonist response, 6 μM, read-out: % Response Relative to EC80 of Capsaicin (6 μM)): 133%
EC50 (human VR1 [1]): 111 nM
inhibition at 1 µM (human VR1 [1]): 84%
Ki (human VR1 [2]): 89 nM

Structure (SMILES): O=C(CCc1ccccc1)Nc1ccc(-c2ccncc2)c(C(F)(F)F)c1 [Cpd 252]
IC50 (human VR1 [1]): 896 nM
inhibition at 5 µM (human VR1 [1]): 100%
Ki (human VR1 [2]): 5350 nM

Structure (SMILES): Cc1cc(NC(=O)CCc2ccc(C(C)(C)C)cc2)ccc1-c1ccccc1O [Cpd 97]
IC50 (human VR1 [1]): 228 nM
inhibition at 1 µM (human VR1 [1]): 95%
inhibition at 5 µM (human VR1 [1]): 104%
Ki (human VR1 [2]): 15 nM

Structure (SMILES): CC(C)(C)c1ccc(CCC(=O)Nc2cccc(-c3cccc(CO)c3)c2)cc1 [Cpd 21]
% Response Relative to EC80 of Capsaicin (12 μM) (human VR1 [1]; agonist response): 45%
h Binding % I (1 μM) (human VR1 [2]): 1%

Structure (SMILES): CC(C)(C)c1ccc(CCC(=O)Nc2ccccc2-c2ccc(O)cc2)cc1 [Cpd 1]
h % I (10 μM) (human VR1 [1]): 45%
h Binding % I (1 μM) (human VR1 [2]): 1%

Structure (SMILES): Cc1cc(NC(=O)CCc2ccc(C(C)(C)C)cc2)cnc1-c1ccccc1O [Cpd 160, 3-(4-tert-butyl-phenyl)-N-[6-(2-hydroxy-phenyl)-5-methyl-pyridin-3-yl]-propionamide]
IC50 (human VR1 [1]): 27 nM
inhibition at 5 µM (human VR1 [1]): 96%
inhibition at 1 µM (human VR1 [2]): 101%

Structure (SMILES): Cc1cn(-c2ccc(NC(=O)/C=C/c3ccc(C(F)(F)F)cn3)cc2C(F)(F)F)cn1 [Cpd 277]
inhibition at 1 µM (human VR1 [1]): 38%
Ki (human VR1 [2]): 140 nM

Structure (SMILES): Cc1cc(NC(=O)CCc2ccc(C(C)(C)C)cc2)cnc1-n1ccnc1 [Cpd 214]
IC50 (human VR1 [1]): 73.2 nM
inhibition at 5 µM (human VR1 [1]): 91%
Ki (human VR1 [2]): 536 nM

Structure (SMILES): O=C(CCc1ccc(C(F)(F)F)cc1)Nc1ccc(-n2cnc(Cl)c2Cl)cc1 [Cpd 263]
inhibition at 5 µM (human VR1 [1]): 67%
Ki (human VR1 [2]): 84.4 nM

Next, values leading:

inhibition at 1 µM (human VR1 [1]): 99%
inhibition at 5 µM (human VR1 [1]): 22%
Ki (human VR1 [2]): 66 nM
Structure (SMILES): CC(C)(C)c1ccc(CCC(=O)Nc2ccc(-c3ccccn3)nc2)cc1 [Cpd 176]

Emax at 12 µM (human VR1 [1]; agonist response): 68%
Ki (human VR1 [2]): 53.3 nM
inhibition at 1 µM (human VR1 [2]): 96%
Structure (SMILES): CC(C)(C)c1ccc(CCC(=O)Nc2ccc(-c3cccc(O)c3)c(F)c2)cc1 [Cpd 61]

inhibition at 10 µM (human VR1 [1]): 36%
inhibition at 1 µM (human VR1 [2]): 43%
Structure (SMILES): COC(=O)c1cccc(-c2ccc(NC(=O)CCc3ccc(C(C)(C)C)cc3)cc2)c1 [Cpd 29, 4′-[3-(4-tert-butyl-phenyl)-propionylamino]-biphenyl-3-carboxylic acid methyl ester]

Emax at 12 µM (human VR1 [1]; agonist response): 95%
Ki (human VR1 [2]): 10.9 nM
inhibition at 1 µM (human VR1 [2]): 101%
Structure (SMILES): CC(C)(C)c1ccc(CCC(=O)Nc2ccc(-c3ccc(O)cc3)nc2)cc1 [Cpd 133]

inhibition at 10 µM (human VR1 [1]): 36%
Ki (human VR1 [2]): 145 nM
inhibition at 1 µM (human VR1 [2]): 84%
Structure (SMILES): CC(C)(C)c1ccc(CCC(=O)Nc2ccc(-c3cccc([N+](=O)[O-])c3)cc2)cc1 [Cpd 11]

Emax at 12 µM (human VR1 [1]; agonist response): 67%
Ki (human VR1 [2]): 48 nM
inhibition at 1 µM (human VR1 [2]): 90%
Structure (SMILES): CC(C)(C)c1ccc(CCC(=O)Nc2ccc(-c3cccc(N)c3)cc2)cc1 [Cpd 17]

IC50 (human VR1 [1]): 3520 nM
inhibition at 1 µM (human VR1 [2]): 1%
Structure (SMILES): CC(C)(C)c1ccc(CCC(=O)Nc2ccccc2-c2ccncc2)cc1 [Cpd 103]

Emax at 12 µM (human VR1 [1]; agonist response): 104%
EC50 (human VR1 [1]): 1660 nM
inhibition at 1 µM (human VR1 [2]): 23%
Structure (SMILES): CC(C)(C)c1ccc(CCC(=O)Nc2ccc(-c3cccc(CN)c3)cc2)cc1 [Cpd 43]

IC50 (human VR1 [1]): 0.972 nM
inhibition at 1 µM (human VR1 [2]): 19%
Structure (SMILES): Cn1cncc1-c1ccc(NC(=O)CCc2ccc(C(C)(C)C)cc2)cc1 [Cpd 191]

h % I (5 μM) (human VR1 [1]): 19%
h Binding % I (1 μM) (human VR1 [2]): 3%
Structure (SMILES): CC(C)(C)c1ccc(CCC(=O)Nc2ccc(-c3nn[nH]n3)cc2)cc1 [Cpd 199]

Emax at 12 µM (human VR1 [1]; agonist response): 101%
EC50 (human VR1 [1]): 773 nM
Ki (human VR1 [2]): 324 nM
inhibition at 1 µM (human VR1 [2]): 67%
Structure (SMILES): CC(C)(C)c1ccc(CCC(=O)Nc2ccc(-c3cncnc3)cc2)cc1 [Cpd 113]

IC50 (human VR1 [1]): 377 nM
inhibition at 1 µM (human VR1 [2]): 1.1%
Structure (SMILES): CC(C)(C)c1ccc(CCC(=O)Nc2cccc(-c3ncccn3)c2)cc1 [Cpd 116]

% Response Relative to EC80 of Capsaicin (12 μM) (human VR1 [1]; agonist response): 81%
h Binding % I (1 μM) (human VR1 [2]): 48%
Structure (SMILES): Cc1cccc(-c2ccc(NC(=O)CCc3ccc(C(C)(C)C)cc3)cc2)c1 [Cpd 28]

h % I (5 μM) (human VR1 [1]): 63%
h Binding % I (1 μM) (human VR1 [2]): 4%
Structure (SMILES): Cn1ccnc1-c1ccc(NC(=O)CCc2ccc(C(C)(C)C)cc2)cc1 [Cpd 189]
